Data published in US20240150360A1 (THE REGENTS OF THE UNIVERSITY OF MICHIGAN, priority 2021, published 2024).
Like-named read-outs stand apart in the source and are kept apart here.

What was measured:
22Rv1 cells = assay: Cell growth inhibition assay (CellTiter-Glo) in 22Rv1; type: cell-based, human; settings: 22Rv1 cells, 96 h incubation, read-out: Cell Growth Inhibition (IC50) 22Rv1
Procedure: Biological Assays. CBP/p300 degradation activity and cell growth inhibition were evaluated in the human prostate cancer cell line 22Rv1 (ATCC© CRL-2505™) purchased from the American Type Culture Collection (ATCC), Manassas, VA, and maintained and cultured in Dulbecco's Modified Eagle's medium (DMEM) containing 10% fetal bovine serum, 1 unit/ml of penicillin and 1 μg/ml of streptomycin. Cells with 3-8 passages after purchase were used in experiments.
Cell Growth Inhibition Assay Protocol. 22RV1 cells were seeded at a concentration of 4000 cells/well in 100 μl culture medium and 2 μl of test compound (final concentration start from 10 μM and 3 times dilution) into 96 well microplates (Corning 3903). The cell cultures were incubated for 96 h at +37° C. and 5% CO2. The plate and its contents were equilibrated to room temperature for approximately 30 minutes. 100 μl of CellTiter-Glo® 2.0 Reagent equal to the volume of cell culture medium present was added in each well. The contents were mixed for 2 minutes on an orbital shaker. The plate was allowed to incubate at room temperature for 10 minutes. The luminescence was recorded. The data was analyzed by Prism GraphPad 8.

CBP = molecular target: T1, CBP (Homo sapiens, UniProt Q92793); assay: CBP degradation in 22Rv1 cells (5 h); type: cell-based; settings: 22Rv1 cells, 5 h; for Dmax: 22Rv1, 5 h, read-out: CBP Degradation (22Rv1, 5 h) DCmax
T1 construct: endogenous in cells; host or cells: 22Rv1 (ATCC CRL-2505) human prostate cancer cells
T1 sequence (Q92793 whole entry): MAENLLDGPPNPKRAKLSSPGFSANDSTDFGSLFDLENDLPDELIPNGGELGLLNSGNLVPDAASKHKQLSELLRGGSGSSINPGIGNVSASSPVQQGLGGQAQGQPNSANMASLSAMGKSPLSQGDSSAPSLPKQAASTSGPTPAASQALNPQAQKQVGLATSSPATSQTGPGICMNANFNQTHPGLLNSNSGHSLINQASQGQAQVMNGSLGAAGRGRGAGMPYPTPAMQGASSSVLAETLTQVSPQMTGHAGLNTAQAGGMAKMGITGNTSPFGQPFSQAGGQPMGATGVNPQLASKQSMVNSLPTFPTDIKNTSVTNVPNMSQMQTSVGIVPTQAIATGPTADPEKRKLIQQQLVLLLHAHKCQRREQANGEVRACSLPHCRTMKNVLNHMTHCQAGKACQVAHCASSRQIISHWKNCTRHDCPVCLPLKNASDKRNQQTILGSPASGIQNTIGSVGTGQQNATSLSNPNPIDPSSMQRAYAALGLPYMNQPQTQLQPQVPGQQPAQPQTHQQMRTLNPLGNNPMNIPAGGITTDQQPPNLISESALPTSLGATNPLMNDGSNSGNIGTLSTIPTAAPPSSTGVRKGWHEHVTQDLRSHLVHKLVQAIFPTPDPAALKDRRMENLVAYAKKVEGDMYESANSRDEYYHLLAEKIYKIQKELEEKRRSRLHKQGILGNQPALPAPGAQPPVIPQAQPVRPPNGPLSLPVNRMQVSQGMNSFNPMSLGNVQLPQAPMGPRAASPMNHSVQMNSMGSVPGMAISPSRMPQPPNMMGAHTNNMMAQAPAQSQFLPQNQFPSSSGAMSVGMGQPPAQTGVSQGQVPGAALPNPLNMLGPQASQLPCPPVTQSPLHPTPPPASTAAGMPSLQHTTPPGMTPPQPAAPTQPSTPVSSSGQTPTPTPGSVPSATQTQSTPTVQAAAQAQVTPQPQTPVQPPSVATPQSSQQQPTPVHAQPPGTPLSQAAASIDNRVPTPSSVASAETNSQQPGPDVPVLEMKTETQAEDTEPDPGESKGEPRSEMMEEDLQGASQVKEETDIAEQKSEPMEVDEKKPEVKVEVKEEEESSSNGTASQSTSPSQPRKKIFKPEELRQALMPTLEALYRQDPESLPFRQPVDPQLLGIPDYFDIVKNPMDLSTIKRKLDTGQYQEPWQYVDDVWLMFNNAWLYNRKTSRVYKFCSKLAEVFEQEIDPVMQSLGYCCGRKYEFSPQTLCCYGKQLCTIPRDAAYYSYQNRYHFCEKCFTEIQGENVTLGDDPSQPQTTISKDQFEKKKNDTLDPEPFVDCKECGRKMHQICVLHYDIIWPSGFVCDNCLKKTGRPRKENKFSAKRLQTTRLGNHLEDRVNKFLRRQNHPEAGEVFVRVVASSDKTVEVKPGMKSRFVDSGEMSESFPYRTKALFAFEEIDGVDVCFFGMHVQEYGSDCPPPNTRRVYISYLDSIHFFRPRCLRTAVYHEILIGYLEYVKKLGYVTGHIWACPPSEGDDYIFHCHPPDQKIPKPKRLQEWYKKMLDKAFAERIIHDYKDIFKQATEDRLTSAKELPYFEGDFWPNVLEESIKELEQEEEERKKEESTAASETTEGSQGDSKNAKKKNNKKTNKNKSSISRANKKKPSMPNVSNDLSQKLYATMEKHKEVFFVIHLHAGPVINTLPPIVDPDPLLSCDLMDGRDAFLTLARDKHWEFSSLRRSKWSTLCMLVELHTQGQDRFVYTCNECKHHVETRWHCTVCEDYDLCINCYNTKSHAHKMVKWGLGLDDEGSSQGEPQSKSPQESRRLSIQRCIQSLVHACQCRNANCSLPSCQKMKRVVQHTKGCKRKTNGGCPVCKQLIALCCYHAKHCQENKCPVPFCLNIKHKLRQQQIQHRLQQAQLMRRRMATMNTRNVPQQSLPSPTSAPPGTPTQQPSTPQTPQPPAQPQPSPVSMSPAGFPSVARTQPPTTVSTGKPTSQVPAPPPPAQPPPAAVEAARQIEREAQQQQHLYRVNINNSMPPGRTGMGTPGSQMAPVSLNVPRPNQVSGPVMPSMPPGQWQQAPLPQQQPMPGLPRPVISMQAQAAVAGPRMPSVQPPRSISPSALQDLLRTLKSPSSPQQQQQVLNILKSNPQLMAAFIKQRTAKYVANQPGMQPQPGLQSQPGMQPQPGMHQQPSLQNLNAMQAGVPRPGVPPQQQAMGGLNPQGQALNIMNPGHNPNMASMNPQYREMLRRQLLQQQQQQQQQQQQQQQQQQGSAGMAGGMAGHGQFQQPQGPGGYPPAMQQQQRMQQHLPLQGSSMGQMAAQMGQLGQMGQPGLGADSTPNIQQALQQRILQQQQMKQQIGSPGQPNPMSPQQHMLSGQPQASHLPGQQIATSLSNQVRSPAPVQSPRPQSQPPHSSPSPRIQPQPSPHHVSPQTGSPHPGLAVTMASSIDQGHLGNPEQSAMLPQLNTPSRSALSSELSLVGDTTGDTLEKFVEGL
Text: Biological Assays. […] Cells with 3-8 passages after purchase were used in experiments.

HL60 = assay: Cell growth inhibition in HL60; type: cell-based; settings: read-out: Cell Growth Inhibition (IC50) HL60
[1] = Homo sapiens, HL-60, HL60 cells

| Structure (SMILES) | IC50 (22Rv1 cells; Homo sapiens, 22Rv1, 96 h) [nM] | Dmax (CBP) [%] | DC50 (CBP) [nM] | IC50 (HL60; [1]) [nM] | IC50 (22Rv1 cells) [nM] | CBP Degradation (22Rv1, 5 h) DCmax (CBP) | IC50 (HL60; HL60 cells) [nM] |
| --- | --- | --- | --- | --- | --- | --- | --- |
| CC(=O)N1CCc2c(c(N3CCCc4cc(-c5cnn(C)c5)c(C(F)F)cc43)nn2C2CCC(C(=O)N3CCc4cc5c(cc4C3)C(=O)N(C3CCC(=O)NC3=O)C5=O)CC2)C1 (stereo not shown) [CP-035, 6-(4-(5-acetyl-3-(7-(difluoromethyl)-6-(1-methyl-1H-pyrazol-4-yl)-3,4-dihydroquinolin-1(2H)-yl)-4,5,6,7-tetrahydro-1H-pyrazolo[4,3-c]pyridin-1-yl)cyclohexane-1-carbonyl)-2-(2,6-dioxopiperidin-3-yl)-5,6,7,8-tetrahydro-1H-pyrrolo[3,4-g]isoquinoline-1,3(2H)-dione] |  |  | < 100 |  | < 10000 | + (>50% =) | < 1000 |
| CC(=O)N1CCc2c(c(N3CCCc4cc(-c5cnn(C)c5)c(C(F)F)cc43)nn2C[C@H]2CC[C@@H](C(=O)N3CCc4cc5c(cc4C3)C(=O)N(C3CCC(=O)NC3=O)C5=O)CC2)C1 (stereo partly drawn) [CP-032, cis-6-(4-((5-acetyl-3-(7-(difluoromethyl)-6-(1-methyl-1H-pyrazol-4-yl)-3,4-dihydroquinolin-1(2H)-yl)-4,5,6,- tetrahydro-1H-pyrazolo[4,3-c]pyridin-1-yl)methyl)cyclohexane-1-carbonyl)-2-(2,6-dioxopiperidin-3-yl)-5,6,7,8-tetrahydro-1H-pyrrolo[3,4-g]isoquinoline-1,3(2H)-dione] | < 10000 | > 50 | < 100 | < 1000 |  |  |  |
| CC(=O)N1CCc2c(c(N3CCCc4cc(-c5cnn(C)c5)c(C(F)F)cc43)nn2C2CCC(C(=O)N3Cc4cc5c(cc4C3)C(=O)N(C3CCC(=O)NC3=O)C5=O)CC2)C1 (stereo not shown) [CP-033, 6-(4-(5-acetyl-3-(7-(difluoromethyl)-6-(1-methyl-1H-pyrazol-4-yl)-3,4-dihydroquinolin-1(2H)-yl)-4,5,6,7-tetrahydro-1H-pyrazolo[4,3-c]pyridin-1-yl)cyclohexane-1-carbonyl)-2-(2,6-dioxopiperidin-3-yl)-6,7-dihydropyrrolo[3,4-f]isoindole-1,3(2H,5H)-dione] |  | > 90 | < 10 | < 100 | < 100 |  |  |
| CC(=O)N1CCc2c(c(N3CCCc4cc(-c5cnn(CCCN6CCc7cc8c(cc7C6)C(=O)N(C6CCC(=O)NC6=O)C8=O)c5)c(C(F)F)cc43)nn2C2CCOCC2)C1 (stereo not shown) [CP-074, 6-(3-(4-(1-(5-acetyl-1-(tetrahydro-2H-pyran-4-yl)-4,5,6,7-tetrahydro-1H-pyrazolo[4,3-c]pyridin-3-yl)-7-(difluoromethyl)-1,2,3,4-tetrahydroquinolin-6-y)-1H-pyrazol-1-yl)propyl)-2-(2,6-dioxopiperidin-3-yl)-5,6,7,8-tetrahydro-1H-pyrrolo[3,4-g]isoquinoline-1,3(2H)-dione] | < 10000 | < 50 | > 1000 | < 100 |  |  |  |
| CC(=O)N1CCc2c(c(N3CCCc4cc(-c5cnn(CCCCCN6CCc7cc8c(cc7C6)C(=O)N(C6CCC(=O)NC6=O)C8=O)c5)c(C(F)F)cc43)nn2C2CCOCC2)C1 (stereo not shown) [CP-069, 6-(5-(4-(1-(5-acetyl-1-(tetrahydro-2H-pyran-4-yl)-4,5,6,7-tetrahydro-1H-pyrazolo[4,3-c]pyridin-3-yl)-7-(difluoromethyl)-1,2,3,4-tetrahydroquinolin-6-yl)-1H-pyrazol-1-yl)pentyl)-2-(2,6-dioxopiperidin-3-yl)-5,6,7,8-tetrahydro-1H-pyrrolo[3,4-g]isoquinoline-1,3(2H)-dione] | < 1000 | > 70 | < 10 | < 100 |  |  |  |
| CC(=O)N1CCc2c(c(N3CCCc4cc(-c5cnn(CCCN6Cc7cc8c(cc7C6)C(=O)N(C6CCC(=O)NC6=O)C8=O)c5)c(C(F)F)cc43)nn2C2CCOCC2)C1 (stereo not shown) [CP-073, 6-(3-(4-(1-(5-acetyl-1-(tetrahydro-2H-pyran-4-yl)-4,5,6,7-tetrahydro-1H-pyrazolo[4,3-c]pyridin-3-yl)-7-(difluoromethyl)-1,2,3,4-tetrahydroquinolin-6-yl)-1H-pyrazol-1-yl)propyl)-2-(2,6-dioxopiepridin-3-yl)-6,7-dihydropyrrolo[3,4-f]isoindole-1,3(2H,5H)-dione] | < 10000 | > 70 | < 10 | < 100 |  |  |  |
| CC(=O)N1CCc2c(c(N3CCCc4cc(-c5cnn(C)c5)c(C(F)F)cc43)nn2C2CCC(C(=O)N3CCc4cc5c(cc4C3)C(=O)N(C3CCC(=O)NC3=O)C5=O)CC2)C1 (stereo not shown) [CP-036, 6-(4-(5-acetyl-3-(7-(difluoromethyl)-6-(1-methyl-1H-pyrazol-4-yl)-3,4-dihydroquinolin-1(2H)-yl)-4,5,6,7-tetrahydro-1H-pyrazolo[4,3-c]pyridin-1-yl)cyclohexane-1-carbonyl)-2-(2,6-dioxopiperidin-3-yl)-5,6,7,8-tetrahydro-1H-pyrrolo[3,4-g]isoquinoline-1,3(2H)-dione] |  |  | < 10 |  | < 1000 | +++ (>90% = +++) | < 100 |

The next lines start with the values.

| IC50 (22Rv1 cells; Homo sapiens, 22Rv1, 96 h) [nM] | Dmax (CBP) [%] | DC50 (CBP) [nM] | IC50 (HL60; [1]) [nM] | IC50 (22Rv1 cells) [nM] | CBP Degradation (22Rv1, 5 h) DCmax (CBP) | IC50 (HL60; HL60 cells) [nM] | Structure (SMILES) |
| --- | --- | --- | --- | --- | --- | --- | --- |
| < 100 | > 90 | < 10 | < 100 |  |  |  | CC(=O)N1CCc2c(c(N3CCCc4cc(-c5cnn(CCCCN6Cc7cc8c(cc7C6)C(=O)N(C6CCC(=O)NC6=O)C8=O)c5)c(C(F)F)cc43)nn2C2CCOCC2)C1 (stereo not shown) [CP-068, 6-(4-(4-(1-(5-acetyl-1-(tetrahydro-2H-pyran-4-yl)-4,5,6,7-tetrahydro-1H-pyrazolo[4,3-c]pyridin-3-yl)-7-(difluoromethyl)-1,2,3,4-tetrahydroquinolin-6-yl)-1H-pyrazol-1-yl)butyl)-2-(2,6-dioxopiperidin-3-yl)-6,7-dihydropyrrolo[3,4-f]isoindole-1,3(2H,5H)-dione] |
| < 1000 | > 90 | < 10 | < 100 |  |  |  | CC(=O)N1CCc2c(c(N3CCCc4ccc(C(F)F)cc43)nn2C2CCN(C(=O)CN3CCc4cc5c(cc4C3)C(=O)N(C3CCC(=O)NC3=O)C5=O)CC2)C1 (stereo not shown) [CP-009, 6-(2-(4-(5-acetyl-3-(7-(difluoromethyl)-3,4-dihydroquinolin-1(2H)-yl)-4,5,6,7-tetrahydro-1H-pyrazolo[4,3-c]pyridin-1-yl)piperidin-1-yl)-2-oxoethyl)-2-(2,6-dioxopiperidin-3-yl)-5,6,7,8-tetrahydro-1H-pyrrolo[3,4-g]isoquinoline-1,3(2H)-dione] |
| < 100 | > 70 | < 10 | < 100 |  |  |  | CC(=O)N1CCc2c(c(N3CCCc4cc(-c5cnn(C)c5)c(C(F)F)cc43)nn2C2CCN(C(=O)CCCN3Cc4cc5c(cc4C3)C(=O)N(C3CCC(=O)NC3=O)C5=O)CC2)C1 (stereo not shown) [CP-008, 6-(4-(4-(5-acetyl-3-(7-(difluoromethyl)-6-(1-methyl-1H-pyrazol-4-yl)-3,4-dihydroquinolin-1(2H)-yl)-4,5,6,7-tetrahydro-1H-pyrazolo[4,3-c]pyridin-1-yl)piperidin-1-yl)-4-oxobutyl)-2-(2,6-dioxopiperidin-3-yl)-6,7-dihydropyrrolo[3,4-f]isoindole-1,3(2H,5H)-dione] |
